# Test results published in ChEMBL document CHEMBL4196033, “Potent hydrazone derivatives targeting esophageal cancer cells” (Eur J Med Chem, 2018).
# Activity calls are given as the source filed them. No cut-off for these calls is given here.
# Assays:
# [1] = system: EC9706; experiment: Induction of ROS generation in human EC9706 cells at 2 to 4 uM after 24 hrs in presence of anti-oxidant NAC by DCFH-DA staining based flow cytometry; type: functional, cell-based
# [2] = system: EC9706; experiment: Induction of apoptosis in human EC9706 cells assessed as late apoptotic cells at 4 uM after 48 hrs in presence of caspase inhibitor Z-VAD-FMK by Annexin V-FITC/propidium iodide staining based flow cytometry (reference value: 1.27%); type: functional
# [3] = system: ECa-109 cell line; experiment: Induction of apoptosis in human EC109 cells assessed as live cells at 4 uM after 48 hrs in presence of caspase inhibitor Z-VAD-FMK by Annexin V-FITC/propidium iodide staining based flow cytometry (reference value: 96.2%); type: functional
# [4] = system: EC9706; experiment: Induction of apoptosis in human EC9706 cells assessed as early apoptotic cells at 2 uM after 48 hrs by Annexin V-FITC/propidium iodide staining based flow cytometry (reference value: 0.68 to 1.58%); type: functional
# [5] = system: Mus musculus; experiment: Acute toxicity in C57BL/6 mouse assessed as histopathological changes in lung at 2 g/kg, ig measured for 2 weeks by hematoxylin and eosin staining based microscopic method; type: organism-based; details: in vivo, po, 2000 mg/kg, 336 h
# [6] = system: ECa-109 cell line; experiment: Induction of apoptosis in human EC109 cells assessed as late apoptotic cells at 8 uM after 48 hrs in presence of caspase inhibitor Z-VAD-FMK by Annexin V-FITC/propidium iodide staining based flow cytometry (reference value: 0.01%); type: functional
# [7] = system: EC9706; experiment: Induction of apoptosis in human EC9706 cells assessed as live cells at 4 uM after 48 hrs by Annexin V-FITC/propidium iodide staining based flow cytometry (reference value: 85.5 to 96%); type: functional
# [8] = system: EC9706; experiment: Effect on Prxs-4 protein expression in human EC9706 cells at 2 to 8 uM after 48 hrs by Western blot analysis; type: functional, cell-based
# [9] = system: EC9706; experiment: Induction of apoptosis in human EC9706 cells assessed as increase in cleaved caspase-9 protein expression after 48 hrs by Western blot analysis; type: functional, cell-based
smiles,measurement,setting,value
COc1ccc(/C=N/NC(=O)c2cccc(S(=O)(=O)N3CCOCC3)c2)c(O)c1,Activity,[1],inactive
same,Activity,[2],20.7%
same,Activity,[3],49%
same,Activity,[4],1.56%
same,Activity,[5],Non-Toxic
same,Activity,[6],21.2%
same,Activity,[7],34.2 - 61.2%
same,Activity,[8],Active
same,Activity,[9],Dose-dependent effect
